Assay results from ChEMBL document CHEMBL5346903, “Discovery of novel and bioavailable histone deacetylases and cyclin-dependent kinases dual inhibitor to impair the stemness of leukemia cells” (Eur J Med Chem, 2023).

How the values were obtained:
[1] = system: U-937; test: Induction of differentiation in human U-937 cells assessed as increase in CD11b positive cells at 1 uM incubated for 48 hrs by FITC staining based flow cytometry (reference value: 2.72 %); format: functional
[2] = system: HL-60; test: Induction of apoptosis in human HL-60 cells assessed as necrotic cells at 0.5 uM incubated for 48 hrs by annexin V-FITC/PI satining based flow cytometry (reference value: 0.00 %); format: functional
[3] = target: Histone deacetylase 1 (Homo sapiens, UniProt Q13547); test: Inhibition of recombinant human HDAC1 using HDAC substrate incubated for 30 mins by fluorescence based assay
[4] = system: HL-60; test: Induction of apoptosis in human HL-60 cells assessed as viable cells at 0.5 uM incubated for 48 hrs by annexin V-FITC/PI satining based flow cytometry (reference value: 97.4 %); format: functional; settings: read-out: Activity
[5] = Antiproliferative activity against human SKNO-1 cells incubated for 72 hrs by CCK8 assay; format: functional, cell-based; settings: SKNO-1, 72 h
[6] = system: U-937; test: Induction of apoptosis in human U-937 cells assessed as late apoptotic cells at 0.2 uM incubated for 48 hrs by annexin V-FITC/PI satining based flow cytometry (reference value: 7.10 %); format: functional
[7] = system: U-937; test: Inhibition of colony formation in human U-937 cells treated for 15 days by soft agar assay; format: functional, cell-based; settings: time 15.0 day
[8] = target: Cyclin-dependent kinase 1/cyclin B1 (Homo sapiens) (UniProt P06493+P14635); test: Inhibition of CDK1/cyclinB1 (unknown origin) at 100 nM preincubated for 20 mins followed by [gamma-33P]ATP addition measured after 120 mins in presence of ATP by Hot-SpotSM kinase assay relative to control; format: protein-complex assay; settings: time 140.0 min
[9] = Bioavailability in Sprague-Dawley rat at 25 mg/kg, po measured upto 8 hrs by LC/MS-MS analysis; format: ADME, organism-based; settings: in vivo
[10] = Half life in Sprague-Dawley rat at 5 mg/kg, iv measured upto 6 hrs by LC/MS-MS analysis; format: ADME, organism-based; settings: in vivo
[11] = target: Histone deacetylase 5 (Homo sapiens, UniProt Q9UQL6); test: Inhibition of recombinant human HDAC5 using HDAC substrate incubated for 30 mins by fluorescence based assay
[12] = system: HL-60; test: Induction of differentiation in human HL-60 cells assessed as increase in CD11b positive cells at 2 uM incubated for 24 hrs by FITC staining based flow cytometry (reference value: 1.45 %); format: functional
[13] = target: Cyclin-dependent kinase 13/Cyclin-K (Homo sapiens) (UniProt Q14004+O75909); test: Inhibition of CDK13/cyclinK (unknown origin) at 100 nM preincubated for 20 mins followed by [gamma-33P]ATP addition measured after 120 mins in presence of ATP by Hot-SpotSM kinase assay relative to control; format: protein-complex assay; settings: time 140.0 min
[14] = Cmax in Sprague-Dawley rat at 5 mg/kg, iv measured upto 6 hrs by LC/MS-MS analysis; format: ADME, organism-based; design: time < 6 hrs, dose 5 mg/kg, route iv; settings: in vivo
[15] = system: U-937; test: Induction of differentiation in human U-937 cells assessed as increase in CD11b positive cells at 0.5 uM incubated for 48 hrs by FITC staining based flow cytometry (reference value: 2.72 %); format: functional
[16] = target: Histone deacetylase (Homo sapiens) (UniProt Q13547+O15379+Q9UBN7+Q92769+Q9UQL6+Q8WUI4+Q9BY41+Q96DB2+P56524+Q9UKV0+Q969S8); test: Inhibition of HDAC in human nuclear extract using Ac-Arg-Gly-Lys(Ac)-AMC as substrate at 1 uM incubated overnight by fluorescence based assay relative to control; format: subcellular; settings: HeLa, Nucleus
[17] = system: Kasumi 1; test: Antiproliferative activity against human Kasumi 1 cells incubated for 72 hrs by CCK8 assay; format: functional, cell-based; settings: Kasumi 1, 72 h
[18] = AUC in Sprague-Dawley rat at 5 mg/kg, iv measured upto 6 hrs by LC/MS-MS analysis; format: ADME, organism-based; design: dose 5 mg/kg, time < 6 hrs, route iv; settings: in vivo
[19] = system: U-937; test: Induction of apoptosis in human U-937 cells assessed as late apoptotic cells at 1 uM incubated for 48 hrs by annexin V-FITC/PI satining based flow cytometry (reference value: 7.10 %); format: functional
[20] = system: U-937; test: Antiproliferative activity against human U-937 cells incubated for 72 hrs by CCK8 assay; format: functional, cell-based; settings: U-937, 72 h
[21] = system: HL-60; test: Inhibition of colony formation in human HL-60 cells treated for 15 days by soft agar assay; format: functional, cell-based; settings: time 15.0 day
[22] = target: CDK1/Cyclin E (Homo sapiens) (UniProt P06493+P24864); test: Inhibition of CDK1/cyclinE1 (unknown origin) at 100 nM preincubated for 20 mins followed by [gamma-33P]ATP addition measured after 120 mins in presence of ATP by Hot-SpotSM kinase assay relative to control; format: protein-complex assay; settings: time 140.0 min
[23] = system: HL-60; test: Antiproliferative activity against human HL-60 cells incubated for 72 hrs by CCK8 assay; format: functional, cell-based; settings: HL-60, 72 h
[24] = target: T1, Histone deacetylase 3 (Homo sapiens, UniProt O15379); test: Inhibition of recombinant human HDAC3 using HDAC substrate incubated for 30 mins by fluorescence based assay
[25] = Clearance in Sprague-Dawley rat at 25 mg/kg, po measured upto 8 hrs by LC/MS-MS analysis; format: ADME, organism-based; settings: in vivo
[26] = Half life in Sprague-Dawley rat at 25 mg/kg, po measured upto 8 hrs by LC/MS-MS analysis; format: ADME, organism-based; settings: in vivo
[27] = target: CDK4/Cyclin D3 (Homo sapiens) (UniProt P11802+P30281); test: Inhibition of CDK4/cyclinD3 (unknown origin) at 100 nM preincubated for 20 mins followed by [gamma-33P]ATP addition measured after 120 mins in presence of ATP by Hot-SpotSM kinase assay relative to control; format: protein-complex assay; settings: time 140.0 min
[28] = target: T1, Histone deacetylase 3; test: Inhibition of HDAC3 in human nuclear extract using Ac-Arg-Gly-Lys(Ac)-AMC as substrate at 1 uM incubated overnight by fluorescence based assay relative to control; format: subcellular; settings: HeLa, Nucleus
[29] = system: HL-60; test: Induction of differentiation in human HL-60 cells assessed as increase in CD11b positive cells at 5 uM incubated for 24 hrs by FITC staining based flow cytometry (reference value: 1.12 %); format: functional
[30] = system: HL-60; test: Induction of differentiation in human HL-60 cells assessed as increase in CD11b positive cells at 0.6 uM incubated for 24 hrs by FITC staining based flow cytometry (reference value: 1.12 %); format: functional
[31] = system: HL-60; test: Induction of apoptosis in human HL-60 cells assessed as viable cells at 5 uM incubated for 48 hrs by annexin V-FITC/PI satining based flow cytometry (reference value: 94.7 %); format: functional; settings: read-out: Activity
[32] = system: U-937; test: Induction of apoptosis in human U-937 cells assessed as early apoptotic cells at 0.6 uM incubated for 48 hrs by annexin V-FITC/PI satining based flow cytometry (reference value: 1.93 %); format: functional
[33] = system: U-937; test: Induction of apoptosis in human U-937 cells assessed as necrotic cells at 1.2 uM incubated for 48 hrs by annexin V-FITC/PI satining based flow cytometry (reference value: 0.102 %); format: functional
[34] = system: U-937; test: Induction of apoptosis in human U-937 cells assessed as necrotic cells at 0.6 uM incubated for 48 hrs by annexin V-FITC/PI satining based flow cytometry (reference value: 0.102 %); format: functional

T1 sequence (O15379 whole entry): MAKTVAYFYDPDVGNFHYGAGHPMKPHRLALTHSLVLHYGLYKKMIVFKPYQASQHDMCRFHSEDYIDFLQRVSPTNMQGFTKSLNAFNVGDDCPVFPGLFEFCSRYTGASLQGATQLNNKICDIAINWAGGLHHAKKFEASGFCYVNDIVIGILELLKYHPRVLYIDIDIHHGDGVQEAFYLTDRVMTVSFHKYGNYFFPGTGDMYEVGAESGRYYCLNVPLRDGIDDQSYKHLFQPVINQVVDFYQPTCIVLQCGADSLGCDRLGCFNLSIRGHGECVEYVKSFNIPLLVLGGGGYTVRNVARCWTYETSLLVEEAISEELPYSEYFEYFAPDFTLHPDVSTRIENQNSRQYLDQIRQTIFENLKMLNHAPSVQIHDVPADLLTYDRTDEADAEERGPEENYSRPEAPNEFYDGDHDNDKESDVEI
Histone deacetylase 1, sequence (Q13547 whole entry): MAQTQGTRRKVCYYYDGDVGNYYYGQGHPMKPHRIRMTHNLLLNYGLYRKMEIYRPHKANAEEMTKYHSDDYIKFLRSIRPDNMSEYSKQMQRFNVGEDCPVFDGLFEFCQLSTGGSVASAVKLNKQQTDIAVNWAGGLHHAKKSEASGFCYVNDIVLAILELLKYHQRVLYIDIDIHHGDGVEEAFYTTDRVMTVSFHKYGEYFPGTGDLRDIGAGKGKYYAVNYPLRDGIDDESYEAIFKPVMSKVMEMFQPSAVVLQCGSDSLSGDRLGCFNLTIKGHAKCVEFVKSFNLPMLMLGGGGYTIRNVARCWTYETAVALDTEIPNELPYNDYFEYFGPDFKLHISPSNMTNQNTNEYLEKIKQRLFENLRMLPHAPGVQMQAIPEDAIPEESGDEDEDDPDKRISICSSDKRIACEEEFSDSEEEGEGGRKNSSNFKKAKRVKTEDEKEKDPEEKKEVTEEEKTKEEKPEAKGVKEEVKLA
Cyclin-dependent kinase 13/Cyclin-K (Homo sapiens), sequence (O75909 whole entry, looked up): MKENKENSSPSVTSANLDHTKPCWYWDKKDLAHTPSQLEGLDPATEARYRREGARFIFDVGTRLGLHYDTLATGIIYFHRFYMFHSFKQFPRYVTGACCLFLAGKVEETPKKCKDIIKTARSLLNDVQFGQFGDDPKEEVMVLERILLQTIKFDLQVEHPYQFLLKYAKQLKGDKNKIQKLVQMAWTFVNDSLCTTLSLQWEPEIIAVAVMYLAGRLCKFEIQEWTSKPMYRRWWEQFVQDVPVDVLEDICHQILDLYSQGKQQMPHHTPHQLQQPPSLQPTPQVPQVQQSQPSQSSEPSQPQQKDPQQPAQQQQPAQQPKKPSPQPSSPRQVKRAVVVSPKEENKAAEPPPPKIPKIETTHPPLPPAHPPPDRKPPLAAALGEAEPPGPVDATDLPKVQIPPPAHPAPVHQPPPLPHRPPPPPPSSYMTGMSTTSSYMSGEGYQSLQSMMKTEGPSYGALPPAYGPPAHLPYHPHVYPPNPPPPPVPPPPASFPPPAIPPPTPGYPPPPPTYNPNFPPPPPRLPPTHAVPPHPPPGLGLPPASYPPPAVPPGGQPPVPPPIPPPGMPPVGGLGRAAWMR
Cyclin-dependent kinase 13/Cyclin-K (Homo sapiens), sequence (Q14004 whole entry, looked up): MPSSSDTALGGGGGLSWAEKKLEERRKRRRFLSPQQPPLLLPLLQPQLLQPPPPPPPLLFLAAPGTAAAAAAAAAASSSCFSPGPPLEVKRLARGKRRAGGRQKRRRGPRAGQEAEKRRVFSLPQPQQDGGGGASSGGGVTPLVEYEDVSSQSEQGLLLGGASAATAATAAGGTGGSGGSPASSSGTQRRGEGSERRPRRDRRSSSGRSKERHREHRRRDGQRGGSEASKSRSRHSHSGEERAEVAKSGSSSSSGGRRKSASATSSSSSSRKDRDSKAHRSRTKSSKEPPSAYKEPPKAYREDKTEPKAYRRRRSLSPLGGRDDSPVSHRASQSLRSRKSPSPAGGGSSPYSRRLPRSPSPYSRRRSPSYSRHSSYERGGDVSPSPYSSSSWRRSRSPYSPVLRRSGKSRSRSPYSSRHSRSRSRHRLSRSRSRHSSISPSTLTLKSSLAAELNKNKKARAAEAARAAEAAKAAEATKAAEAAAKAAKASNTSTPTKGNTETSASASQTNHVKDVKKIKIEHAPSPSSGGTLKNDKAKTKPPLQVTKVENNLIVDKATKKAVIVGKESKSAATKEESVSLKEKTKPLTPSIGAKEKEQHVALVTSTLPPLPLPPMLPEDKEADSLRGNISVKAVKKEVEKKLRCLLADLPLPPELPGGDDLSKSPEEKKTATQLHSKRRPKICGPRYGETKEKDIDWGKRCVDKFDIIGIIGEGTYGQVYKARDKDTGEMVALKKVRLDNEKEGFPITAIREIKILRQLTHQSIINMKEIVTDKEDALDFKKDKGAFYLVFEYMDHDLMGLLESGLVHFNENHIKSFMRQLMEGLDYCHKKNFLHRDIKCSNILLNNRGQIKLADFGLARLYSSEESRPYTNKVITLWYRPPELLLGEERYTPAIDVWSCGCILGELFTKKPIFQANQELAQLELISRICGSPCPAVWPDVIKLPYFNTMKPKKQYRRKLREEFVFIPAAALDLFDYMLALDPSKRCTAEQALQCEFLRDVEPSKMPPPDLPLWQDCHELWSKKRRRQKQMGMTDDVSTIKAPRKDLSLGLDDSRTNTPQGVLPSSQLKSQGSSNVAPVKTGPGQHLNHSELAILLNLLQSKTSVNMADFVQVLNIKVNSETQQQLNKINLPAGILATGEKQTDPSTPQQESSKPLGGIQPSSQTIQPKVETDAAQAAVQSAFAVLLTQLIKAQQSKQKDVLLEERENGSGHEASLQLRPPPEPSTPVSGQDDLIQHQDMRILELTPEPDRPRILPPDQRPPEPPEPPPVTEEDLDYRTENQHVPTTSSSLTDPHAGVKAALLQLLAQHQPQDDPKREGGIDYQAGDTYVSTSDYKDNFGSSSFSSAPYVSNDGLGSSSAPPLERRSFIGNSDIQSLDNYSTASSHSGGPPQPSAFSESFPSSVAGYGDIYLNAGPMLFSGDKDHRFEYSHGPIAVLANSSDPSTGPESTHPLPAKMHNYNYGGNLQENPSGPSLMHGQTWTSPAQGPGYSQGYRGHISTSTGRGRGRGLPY
Histone deacetylase 5, sequence (Q9UQL6 whole entry): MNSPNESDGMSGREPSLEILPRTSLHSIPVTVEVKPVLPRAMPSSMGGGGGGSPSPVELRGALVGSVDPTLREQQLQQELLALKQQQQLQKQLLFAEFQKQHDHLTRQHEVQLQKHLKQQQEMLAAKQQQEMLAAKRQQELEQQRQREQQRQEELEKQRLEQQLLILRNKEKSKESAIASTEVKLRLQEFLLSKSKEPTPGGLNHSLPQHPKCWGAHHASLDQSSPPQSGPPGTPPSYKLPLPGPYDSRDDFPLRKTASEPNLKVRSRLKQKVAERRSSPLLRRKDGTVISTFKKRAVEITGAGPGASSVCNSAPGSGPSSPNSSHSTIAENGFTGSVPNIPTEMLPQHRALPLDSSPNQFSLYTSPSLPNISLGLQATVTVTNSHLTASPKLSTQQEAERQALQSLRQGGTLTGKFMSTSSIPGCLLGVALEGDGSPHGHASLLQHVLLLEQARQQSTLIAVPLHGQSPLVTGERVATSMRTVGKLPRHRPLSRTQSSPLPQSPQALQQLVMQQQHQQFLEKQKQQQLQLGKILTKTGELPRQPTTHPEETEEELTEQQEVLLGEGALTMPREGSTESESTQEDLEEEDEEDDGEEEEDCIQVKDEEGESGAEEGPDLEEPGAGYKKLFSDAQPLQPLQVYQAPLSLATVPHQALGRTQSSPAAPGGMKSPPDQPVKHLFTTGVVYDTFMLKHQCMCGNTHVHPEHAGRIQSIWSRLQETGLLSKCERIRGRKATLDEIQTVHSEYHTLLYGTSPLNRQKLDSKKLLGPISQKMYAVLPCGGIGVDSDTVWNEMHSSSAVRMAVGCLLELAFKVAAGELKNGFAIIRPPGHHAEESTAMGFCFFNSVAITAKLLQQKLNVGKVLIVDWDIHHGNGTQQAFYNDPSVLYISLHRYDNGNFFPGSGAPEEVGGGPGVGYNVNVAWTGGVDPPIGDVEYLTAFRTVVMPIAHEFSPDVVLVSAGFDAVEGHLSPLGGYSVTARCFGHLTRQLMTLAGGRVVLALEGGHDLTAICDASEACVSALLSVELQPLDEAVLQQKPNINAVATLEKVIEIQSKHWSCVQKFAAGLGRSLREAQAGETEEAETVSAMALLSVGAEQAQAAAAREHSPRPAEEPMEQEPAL
CDK1/Cyclin E (Homo sapiens), sequence (P06493 whole entry, looked up): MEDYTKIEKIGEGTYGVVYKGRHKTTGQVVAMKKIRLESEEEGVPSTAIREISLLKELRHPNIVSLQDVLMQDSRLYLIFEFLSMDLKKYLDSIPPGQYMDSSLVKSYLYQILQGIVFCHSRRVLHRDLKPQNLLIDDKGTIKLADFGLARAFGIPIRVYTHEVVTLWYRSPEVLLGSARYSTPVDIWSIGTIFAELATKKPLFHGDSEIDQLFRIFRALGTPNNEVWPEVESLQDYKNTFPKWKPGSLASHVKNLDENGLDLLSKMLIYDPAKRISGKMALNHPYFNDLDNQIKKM
CDK1/Cyclin E (Homo sapiens), sequence (P24864 whole entry, looked up): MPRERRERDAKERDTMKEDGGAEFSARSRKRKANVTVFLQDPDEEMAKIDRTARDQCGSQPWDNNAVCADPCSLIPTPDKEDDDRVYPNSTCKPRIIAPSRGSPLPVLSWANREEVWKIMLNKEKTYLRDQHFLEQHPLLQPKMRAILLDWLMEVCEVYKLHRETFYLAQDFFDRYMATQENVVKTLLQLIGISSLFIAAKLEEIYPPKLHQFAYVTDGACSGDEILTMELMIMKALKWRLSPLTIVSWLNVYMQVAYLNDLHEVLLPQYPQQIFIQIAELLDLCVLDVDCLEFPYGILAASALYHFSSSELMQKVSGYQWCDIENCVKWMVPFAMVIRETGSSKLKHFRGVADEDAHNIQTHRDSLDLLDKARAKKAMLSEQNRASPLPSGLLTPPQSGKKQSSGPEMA

## Nc1ccccc1NC(=O)c1ccc(NC(=O)c2n[nH]cc2NC(=O)c2c(Cl)cccc2Cl)cc1
[1]
  Activity: 6%
[2]
  Activity: 0.01%
[3]
  IC50: 35.7 nM
[4]
  viability at 0.5 µM: 94.4%
[5]
  IC50: 1630 nM
[6]
  Activity: 8.15%
[7]
  inhibition: Dose-Dependent Effect
[8]
  inhibition: 43.8%
[9]
  bioavailability: 56.7%
[10]
  t1/2: 6.6 min
[11]
  IC50: > 1000 nM
[12]
  Activity: 62.2%
[13]
  inhibition: 100%
[14]
  Cmax: 3640 ng/mL
[15]
  Activity: 3.96%
[16]
  inhibition: 100%
[17]
  IC50: 890 nM
[18]
  AUC: 836 ng·h/mL
[19]
  Activity: 34.1%
[20]
  IC50: 720 nM
[21]
  inhibition: Dose-Dependent Effect
[22]
  inhibition: 27.6%
[23]
  IC50: 1430 nM
[24]
  IC50: 40.4 nM
[25]
  CL/F: 28.8 mL/min/kg
[26]
  t1/2: 82.2 min
[27]
  inhibition: 72.8%
[28]
  inhibition: 100%

## Nc1cc(F)ccc1NC(=O)c1ccc(CNC(=O)/C=C/c2cccnc2)cc1 [TUCIDINOSTAT]
[5]
  IC50: 5570 nM
[29]
  Activity: 71.1%
[7]
  inhibition: Dose-Dependent Effect
[30]
  Activity: 24.4%
[31]
  viability at 5 µM: 18.1%
[32]
  Activity: 1.65%
[17]
  IC50: > 10000 nM
[20]
  IC50: 4660 nM
[33]
  Activity: 0.142%
[21]
  inhibition: Dose-Dependent Effect
[23]
  IC50: 3110 nM
[34]
  Activity: 0.072%
